# Entries after “also recorded” stand apart in the source; their conditions may differ.
# Tests used:
# JAK3 = JAK3 (Homo sapiens (Human), UniProt P52333); assay: LanthaScreen JAK biochemical assay, JAK3
# Experimental: A panel of four LanthaScreen JAK biochemical assays (JAK1, 2, 3 and Tyk2) were carried in a common kinase reaction buffer (50 mM HEPES, pH 7.5, 0.01% Brij-35, 10 mM MgCl2, and 1 mM EGTA). Recombinant GST-tagged JAK enzymes and a GFP-tagged STAT1 peptide substrate were obtained from Life Technologies.
# Serially diluted compounds were pre-incubated with each of the four JAK enzymes and the substrate in white 384-well microplates (Corning) at ambient temperature for 1h. ATP was subsequently added to initiate the kinase reactions in 10 μL total volume, with 1% DMSO. […] The plates were allowed to incubate at ambient temperature for 1h before being read on the EnVision reader (Perkin Elmer).
# For dose-response analysis, percent inhibition data were plotted vs. compound concentrations, and IC50 values were determined from a 4-parameter robust fit model with the Prism software (GraphPad Software). Results were expressed as pIC50 (negative logarithm of IC50) and subsequently converted to pKi (negative logarithm of dissociation constant, Ki) using the Cheng-Prusoff equation.
# [1] = Dynamic moisture sorption assessment; assay type: physicochemical; details: 5% to 90% relative humidity; for weight gain: 25° C.
# Experimental: Dynamic moisture sorption (DMS) measurement was performed using a VTI atmospheric microbalance, SGA-100 system (VTI Corp., Hialeah, Fla. 33016). A weighed sample was used and the humidity was lowest possible value (close to 0% RH) at the start of the analysis. The DMS analysis consisted of an initial drying step (0% RH) for 120 minutes, followed by two cycles of sorption and desorption with a scan rate of 5% RH/step over the humidity range of 5% RH to 90% RH. The DMS run was performed isothermally at 25° C.
# [2] = tested on: splenic NK, B and T cells; details: mouse, in vivo; for B and T cell populations (spleen): po
# Experimental: Depletion of mouse splenic cells is an experimental model of immunosuppression (Kudlacz et al., Am. J. of Transplantation, 2004, 4, 51-57). The compound of Example 2 was assessed in the mouse splenic cell model following the same treatment paradigm as that used in the oxazolone-induced colitis model (Assay 8).
# The compound (1, 10 and 100 mg/kg, BID) and tofacitinib (30 and 60 mg/kg, BID) as a positive control were dosed orally for three days to naïve mice. Spleens were harvested 1 h post last dose and crushed immediately for cell subtype staining. Prior to fixation, fluorophore-labelled antibodies for CD19 (FITC; B cells), CD3e (PE; pan T cells) and DX5 (APC; NK cells) were incubated with splenocyte samples from each animal to allow for simultaneous, multiple subtype % analysis on the flow cytometer. The number of total spleen cells for each animal was measured by Scepter™ 2.0 Handheld Automated Cell Counter.
# The absolute number of lymphocyte subtype population (e.g., splenic B, T and NK cells) was calculated from the percentage of each subtype times total spleen cells for each animal. A one way ANOVA, with Dunnett's post hoc test, was used to compare the splenic lymphocytes number of the vehicle and test compound groups. The a level was set at p<0.05. Data were presented as the mean±SEM for each group.
# [3] = tested on: TPA-induced increase in ear thickness; assay: Topical TPA-induced irritant contact dermatitis model in mice; assay type: in vivo, Balb/c mice; details: mouse, topical 30-3000 μg per ear, 6 hours after TPA
# Experimental: The objective of this assay is to assess the anti-inflammatory effect in a model of acute dermatitis of test compounds being studied for cutaneous inflammatory conditions such as atopic dermatitis (Dong et al., J Pharmacol Exp Ther, 2013, 344, 436-446).
# Topical dermal application of phorbol ester 12-O-tetradecanoylphorbol-13-acetate (TPA) in mice causes an inflammatory response that is characterized by edema and neutrophil influx at the early phase (2-24 h) and by epidermal cell proliferation at the later phase (24-48 h) (Griffiths et al., Agents and Actions, 1988, 25, 344-351). Female Balb/c mice were topically administered with either vehicle (1:7 DMSO:acetone) or 20 μL of a solution of TPA (2.5 μg) in vehicle on each ear. At 30 min before and 15 min after TPA administration, either vehicle or the compound of Example 2 at doses of 30, 100, 300, 1000, and 3000 μg in vehicle was applied topically to each ear. The degree of inflammation was assessed as the change in ear thickness at 6 hours after TPA application.
# [4] = tested on: oxazolone-induced colitis; assay: Mouse model of oxazolone-induced colitis; assay type: in vivo, BALB/C mice; details: mice (summary statement)
# Experimental: Oxazolone-induced colitis is an experimental model that has a histological resemblance to human ulcerative colitis (Heller et al. […], 2002, 17, 629-638). Adult BALB/C mice from Harlan were used in the assay. On day 1, animals were lightly anesthetized with isoflurane and the hairs between the shoulder were carefully removed before oxazolone (4%, 150 μL, 4:1 acetone: olive oil formulation) or vehicle solution was slowly applied for skin sensitization. Seven days after skin sensitization, the mice were fasted overnight, anesthetized with isoflurane inhalation, and a 1 mL syringe equipped with a 3.5-F catheter, filled with oxazolone solution, was inserted carefully about 4 cm into the colon of the mouse. Following insertion, 50 μL of the oxazolone solution (1%, 1:1 ethanol:water formulation) was injected very slowly (over 30 sec using an injection pump) into the colon. […] Two-day post oxazolone intrarectal challenge, the Disease Activity Index (DAI) was assessed by treatment-blinded experimenters for each mouse according to the criteria score: stool consistency score (0, normal; 2, loose; 4, diarrhea), gross bleeding score (0, absence; 2, blood tinged; 4, presence), and weight loss score (0, none; 1, 1%-5%; 2, 5%-10%; 3, 10%-20%; 4, more than 20%); DAI=average of (stool consistency score+gross bleeding score+weight loss score). […]
# [5] = Colon pharmacokinetics in rats; assay type: in vivo, Sprague Dawley rats; details: rat, oral administration (summary statement)
# Experimental: The test compound was formulated in 0.5% methyl-cellulose in water and dosed via oral gavage at 3.2 mg/kg and 100 mg/kg to Sprague Dawley rats. At various time points (typically 0.5, 1, 3, 6, 24 hr) post dosing, blood samples were removed via cardiac puncture and intact colons were excised from the rats. Blood samples were centrifuged at 1500×g for 15 min to collect plasma. Colons were washed with ice cold phosphate buffered saline (PBS), weighed, and homogenized at a dilution of 1:10 in PBS. Plasma and colon levels of test compound were determined by LC-MS analysis against analytical standards constructed into a standard curve in the test matrix. A colon to plasma ratio was determined as the ratio of the colon AUC to the plasma AUC in μg hr/g.
# Chain of JAK3 (P52333 whole entry): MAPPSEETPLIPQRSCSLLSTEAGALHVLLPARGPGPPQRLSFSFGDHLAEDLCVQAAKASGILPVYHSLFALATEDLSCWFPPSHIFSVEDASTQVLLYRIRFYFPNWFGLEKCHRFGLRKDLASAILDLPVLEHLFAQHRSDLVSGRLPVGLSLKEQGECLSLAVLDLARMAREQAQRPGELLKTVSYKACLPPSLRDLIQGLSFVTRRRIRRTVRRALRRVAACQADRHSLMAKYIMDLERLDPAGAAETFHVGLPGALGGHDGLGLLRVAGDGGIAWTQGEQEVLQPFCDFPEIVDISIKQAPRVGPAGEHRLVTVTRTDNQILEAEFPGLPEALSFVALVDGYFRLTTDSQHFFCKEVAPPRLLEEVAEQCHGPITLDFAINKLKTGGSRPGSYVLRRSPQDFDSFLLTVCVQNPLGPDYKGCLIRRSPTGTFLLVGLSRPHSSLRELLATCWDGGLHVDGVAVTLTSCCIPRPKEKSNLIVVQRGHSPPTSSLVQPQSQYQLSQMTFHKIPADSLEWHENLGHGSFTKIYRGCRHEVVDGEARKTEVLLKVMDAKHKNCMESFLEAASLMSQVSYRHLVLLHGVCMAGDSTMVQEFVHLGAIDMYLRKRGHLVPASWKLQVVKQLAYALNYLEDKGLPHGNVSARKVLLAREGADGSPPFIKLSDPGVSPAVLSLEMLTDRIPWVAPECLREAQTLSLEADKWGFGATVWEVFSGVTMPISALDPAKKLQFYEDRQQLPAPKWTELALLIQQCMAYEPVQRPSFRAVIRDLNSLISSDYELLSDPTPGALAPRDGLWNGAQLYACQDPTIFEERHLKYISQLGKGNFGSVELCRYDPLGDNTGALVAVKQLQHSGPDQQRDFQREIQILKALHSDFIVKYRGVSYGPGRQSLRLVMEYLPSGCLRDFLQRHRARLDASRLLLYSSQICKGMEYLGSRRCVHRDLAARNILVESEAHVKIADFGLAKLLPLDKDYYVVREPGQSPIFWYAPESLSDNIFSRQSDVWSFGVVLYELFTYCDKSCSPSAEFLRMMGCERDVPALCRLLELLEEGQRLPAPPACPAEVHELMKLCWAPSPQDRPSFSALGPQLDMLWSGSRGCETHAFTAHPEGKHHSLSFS
smiles,measurement,setting,value
"COc1cc(Nc2cc(CO)[nH]n2)nc(N(C)[C@@H]2C[C@H]3CCC[C@@H](C2)N3C(=O)C(F)F)n1 [Example 9, 2,2-difluoro-1-((1R,3s,5S)-3-((4-((5-(hydroxymethyl)-1H-pyrazol-3-yl)amino)-6-methoxypyrimidin-2-yl)(methyl)amino)-9-azabicyclo[3.3.1]nonan-9-yl)ethan-1-one]",JAK 3 (pKi),JAK3,D (D represents a pKi value between 7.5 and 8 (Ki between 31.6 nM and 10 nM))
"COc1cc(Nc2cc(CO)[nH]n2)nc(N(C)[C@@H]2C[C@H]3CCC[C@@H](C2)N3S(=O)(=O)N2CC(C#N)C2)n1 [Form I, 1-(((1R,3s,5S)-3-((4-((5-(hydroxymethyl)-1H-pyrazol-3-yl)amino)-6-methoxypyrimidin-2-yl)(methyl)amino)-9-azabicyclo[3.3.1]nonan-9-yl)sulfonyl)azetidine-3-carbonitrile]",hygroscopicity,[1],non-hygroscopic
same,weight gain,[1],less than 0.4%
same,weight gain,"[1]; listed as Crystalline 1-((1R,3s,5S)-3-((4-((5-(hydroxymethyl)-1H-pyrazol-3-yl)amino)-6-me)))",less than 0.4%
"COc1cc(Nc2cc(CO)[nH]n2)nc(N(C)[C@@H]2C[C@H]3CCC[C@@H](C2)N3S(=O)(=O)N2CC(C#N)C2)n1 [Form II, 1-(((1R,3s,5S)-3-((4-((5-(hydroxymethyl)-1H-pyrazol-3-yl)amino)-6-methoxypyrimidin-2-yl)(methyl)amino)-9-azabicyclo[3.3.1]nonan-9-yl)sulfonyl)azetidine-3-carbonitrile]",weight gain,[1],about 1.2%
"COc1cc(Nc2cc(CO)[nH]n2)nc(N(C)[C@@H]2C[C@H]3CCC[C@@H](C2)N3S(=O)(=O)N2CC(C#N)C2)n1 [Example 2, 1-(((1R,3s,5S)-3-((4-((5-(Hydroxymethyl)-1H-pyrazol-3-yl)amino)-6-methoxypyrimidin-2-yl)(methyl)amino)-9-azabicyclo[3.3.1]nonan-9-yl)sulfonyl)azetidine-3-carbonitrile]",effect of immunosuppression,[2],minimal effect of immunosuppression
same,B and T cell populations (spleen),[2],No treatment effect
same,inhibition of TPA-induced increase in ear thickness,[3],dose- and concentration-dependent effect; also recorded: dose- and concentration-dependent inhibition
same,activity in the oxazolone-induced colitis model,[4],demonstrated activity
same,ratio of exposure in the colon to exposure in plasma,[5],greater than 250
"C[C@@H]1CCN(C(=O)CC#N)C[C@@H]1N(C)c1ncnc2[nH]ccc12 [tofacitinib, reference compound]",B and T cell populations (spleen),[2],No treatment effect

# Source: US11110095B2, “Pyrimidine compounds as JAK kinase inhibitors” (THERAVANCE BIOPHARMA R&D IP, LLC, priority 2016, dated 2021)
